Laboratory results reported in the supplement of paper PMC10307832.

Experiments:
Test in all cases: relative viability (nuclei count vs DMSO), 5 days (fraction); higher = more cells survive
QS11 = compound: C1CC2=C(C1)C=C(C=C2)OC3=NC(=C4C(=N3)N(C=N4)CC5=CC=C(C=C5)C6=CC=CC=C6)N[C@@H](CC7=CC=CC=C7)CO [QS11]
In short: (§1)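 Five library-drug doses, separated by factors of √10, were pinned into 1536-well plates holding lung cancer cell lines after an overnight stay at 37 °C. Cells were fixed, permeabilised and Hoechst-stained in one step after 5 days without medium change, then imaged at 4×. Viability compares treated-well with vehicle-well nuclei, counted in MetaXpress, as a median across plates. Passing plates had control CV below 25% and at least one doubling.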

AZ628 = compound: CC1=C(C=C(C=C1)NC(=O)C2=CC(=CC=C2)C(C)(C)C#N)NC3=CC4=C(C=C3)N=CN(C4=O)C [AZ628]
In short: as §1

Darinaparsin = compound: C[As](C)SC[C@H](NC(=O)CC[C@H](N)C(=O)O)C(=O)NCC(=O)O [Darinaparsin]
In short: as §1

Row | Cell Line | relative viability (QS11; 0.08 µM) | relative viability (QS11; 0.253 µM) | relative viability (QS11; 0.8 µM) | relative viability (QS11; 2.53 µM) | relative viability (QS11; 8 µM) | relative viability (AZ628; 0.08 µM) | relative viability (AZ628; 0.253 µM) | relative viability (AZ628; 0.8 µM) | relative viability (AZ628; 2.53 µM) | relative viability (AZ628; 8 µM) | relative viability (Darinaparsin; 0.08 µM) | relative viability (Darinaparsin; 0.8 µM) | relative viability (Darinaparsin; 2.53 µM) | relative viability (Darinaparsin; 8 µM)
1 | NCI-H1650 | 0.941 | 0.786 | 0.72 | 0.962 | 0.867 | 1.13 | 1.1 | 1.09 | 0.904 | 0.888 | 0.971 | 0.951 | 0.833 | 1.03
2 | NCI-H1651 | 0.906 | 1.01 | 0.857 | 0.988 | 0.899 | 0.986 | 1.01 | 0.986 | 1.08 | 1.12 | 1.15 | 1 | 0.942 | 1.18
3 | NCI-H1666 | 0.935 | 0.984 | 0.776 | 0.793 | 0.667 | 0.965 | 0.826 | 0.885 | 0.813 | 0.901 | 1.04 | 0.948 | 1.24 | 1.05
4 | NCI-H1703 | 0.94 | 0.908 | 0.901 | 1.04 | 0.923 | 0.597 | 0.395 | 0.32 | 0.303 | 0.245 | 1.43 | 1.09 | 0.889 | 1.07
5 | NCI-H1734 | 0.99 | 1.01 | 0.945 | 0.874 | 0.725 | 1.08 | 0.974 | 0.919 | 0.913 | 0.514 | 1.06 | 0.993 | 0.971 | 1.16
6 | NCI-H1755 | 1.03 | 0.983 | 0.638 | 0.861 | 0.783 | 0.992 | 1.02 | 0.97 | 0.989 | 0.948 | 1.12 | 0.964 | 0.945 | 1.13
7 | NCI-H1792 | 0.738 | 0.903 | 0.827 | 0.823 | 0.669 | 1.11 | 0.833 | 0.766 | 0.746 | 0.456 | 0.929 | 1.01 | – | 1.28
8 | NCI-H1793 | 0.866 | 0.807 | 1.05 | 1.07 | 1.09 | 1.1 | 0.829 | 0.957 | 0.783 | 0.61 | 0.981 | 0.934 | 0.707 | 1.02
9 | NCI-H1915 | 0.993 | 1.04 | – | 0.872 | 0.871 | 0.994 | 0.939 | 0.796 | 0.731 | 0.464 | 1.04 | 0.964 | 0.965 | 1.1
10 | NCI-H1944 | 0.999 | 0.947 | – | 0.958 | 0.884 | 1.06 | 0.917 | 0.792 | 0.729 | 0.727 | 1 | 0.997 | 0.959 | 1.14
11 | NCI-H1975 | 0.954 | 0.881 | 1.04 | 1.23 | 1.34 | 0.927 | 0.85 | 0.889 | 0.94 | 0.768 | 0.992 | 1.01 | 0.906 | 1.05
12 | NCI-H1993 | 1.02 | 0.884 | 0.918 | 0.992 | 0.824 | 0.995 | 0.848 | 0.835 | 0.735 | 0.515 | 1.02 | 0.885 | 1.03 | 0.922
13 | NCI-H2009 | 1.03 | 1.01 | 0.756 | 0.902 | 0.894 | 0.948 | 0.933 | 0.598 | 0.711 | 0.379 | 1.12 | 1.03 | 0.949 | 1.03
14 | NCI-H2023 | 1.04 | 0.987 | 0.895 | 1.09 | 0.805 | 1.11 | 1.03 | 0.974 | 0.915 | 0.674 | 1.08 | 0.952 | 0.992 | 1.23
15 | NCI-H2085 | 0.946 | 0.953 | 0.968 | 1 | 1.09 | 1.08 | 0.98 | 1 | 1.03 | 0.882 | 0.998 | 0.985 | 0.958 | 0.999
16 | NCI-H2087 | 1.02 | 0.937 | 0.854 | 0.874 | 0.898 | 0.92 | 0.671 | 0.729 | 0.814 | 0.336 | 1.14 | 1.14 | 1.01 | 1.13

Row | Cell Line | relative viability (QS11; 0.08 µM) | relative viability (QS11; 0.253 µM) | relative viability (QS11; 0.8 µM) | relative viability (QS11; 2.53 µM) | relative viability (QS11; 8 µM) | relative viability (AZ628; 0.08 µM) | relative viability (AZ628; 0.253 µM) | relative viability (AZ628; 0.8 µM) | relative viability (AZ628; 2.53 µM) | relative viability (AZ628; 8 µM) | relative viability (Darinaparsin; 0.08 µM) | relative viability (Darinaparsin; 0.8 µM) | relative viability (Darinaparsin; 2.53 µM) | relative viability (Darinaparsin; 8 µM)
17 | NCI-H2126 | 0.994 | 0.944 | 0.905 | 0.965 | 0.799 | 1.04 | 1 | 0.888 | 1.02 | 0.985 | 1.1 | 1.03 | 0.956 | 1.12
18 | NCI-H2170 | 1.04 | 1 | 0.728 | 1.05 | 1.2 | 1.01 | 0.964 | 0.936 | 1.02 | 0.983 | 1.11 | 0.978 | 0.845 | 1.18
19 | NCI-H2228 | 0.902 | 1.01 | 0.97 | 1.09 | 1.32 | 0.994 | 1.16 | 0.968 | 1.02 | 0.84 | 1.39 | 1.18 | 0.915 | 1.35
20 | NCI-H2342 | 0.888 | 1.02 | 1.07 | 0.998 | 0.998 | 1.1 | 0.898 | 1.02 | 0.935 | 0.995 | 0.953 | 0.888 | 0.939 | 1.08
21 | NCI-H2347 | 0.938 | 1.05 | 0.873 | 0.906 | 0.906 | 0.775 | 0.895 | 0.854 | 0.76 | 0.485 | 1.05 | 0.961 | 0.994 | 1.19
22 | NCI-H2405 | 0.976 | 0.992 | 0.875 | 1.09 | 1.07 | 0.724 | 0.476 | 0.612 | 0.67 | 0.558 | 1.09 | 0.926 | 0.975 | 1.04
23 | NCI-H3122 | 1.03 | 1.07 | – | 1.11 | 0.972 | 0.956 | 0.736 | 0.648 | 0.598 | 0.403 | 1.06 | 1.01 | 1.01 | 1.16
24 | PC-3 [JPC-3] | 0.965 | 1.04 | 0.956 | 1.04 | 1.02 | 1.05 | 1.06 | 1.16 | 1.11 | 0.951 | 1.14 | 1.06 | 1.05 | 1.08
25 | PC-14 | 0.821 | 1.06 | 0.888 | 1.04 | 0.895 | 1.07 | 0.938 | 0.907 | 0.959 | 0.674 | 1.05 | 0.97 | 1.02 | 1.22
26 | RERF-LC-KJ | 0.98 | 0.954 | 0.912 | 0.974 | 0.981 | 1.01 | 0.981 | 0.883 | 0.965 | 0.887 | 1.05 | 1.07 | 0.944 | 1.12
27 | SK-LU-1 | 0.968 | 1.07 | 0.984 | 0.993 | 0.97 | 0.653 | 0.901 | 0.931 | 0.892 | 0.769 | 1.27 | 0.876 | 0.821 | 1.22
28 | SK-MES-1 | 1.12 | 0.952 | 0.941 | 0.95 | 0.946 | 0.945 | 0.99 | 0.923 | 0.92 | 0.595 | 1.15 | 1.05 | 0.948 | 1.26
29 | SW 900 | 0.705 | 0.688 | 0.809 | 0.663 | 0.521 | 1.13 | 0.865 | 1.14 | 0.803 | 0.889 | 0.965 | 0.669 | 0.994 | 0.942
30 | SW 1573 | 1.04 | 0.961 | 1.01 | 0.896 | 0.655 | 0.984 | 0.863 | 0.696 | 0.812 | 0.564 | 1.21 | 0.971 | 0.966 | 1.19
31 | UMC-11 | 0.952 | 0.979 | 0.992 | 1.17 | 1.22 | 1.07 | 0.974 | 0.992 | 0.943 | 1.08 | 0.997 | 0.949 | 0.926 | 1.03
